Measurements from article PMC5731253 (Journal of medicinal chemistry, 2017).
Like-named read-outs stand apart in the source and are kept apart here.

Columns and labels:
[1] = tested on: human embryonic lung (HEL) fibroblasts
[2] = tested on: human embryonic lung (HEL) fibroblasts; assay: Minimum cytotoxic concentration, HEL cell morphology
[3] = tested on: thymidine kinase-deficient (TK−) HSV-1 KOS strain; type: cell-based, herpes simplex virus type 1; details: HEL cell cultures; for Antiviral Activity EC50 HSV-1 TK (KOS): TK-deficient, ACV-resistant strain
TK- VZV (07-1) = type: cell-based, varicella-zoster virus
HSV-1 (KOS) = assay: Anti-HSV-1; type: cell-based, herpes simplex virus type 1; details: HEL cell cultures
HSV-2 (G) = assay: Anti-HSV-2; type: cell-based, herpes simplex virus type 2; details: HEL cell cultures
HIV-1 [4] = assay: HIV-1 inhibition in MT-4 cell cultures; type: cell-based, human immunodeficiency virus type 1; details: HIV-1, MT-4 cells
HIV-1 [5] = assay: HIV-1 inhibition in human tonsillar tissues ex vivo; type: cell-based, human immunodeficiency virus type 1; details: HIV-1 X4LAI.04, 12 days culture

Row | Structure (SMILES) | Cytotoxicity MCC ([2]; Table 3 (HSV assays)) [µM] | Cytotoxicity MCC ([2]; Table 4 (HCMV/VZV assays)) [µM] | Antiviral Activity EC50 HSV-1 (KOS) (HSV-1 (KOS)) | Antiviral Activity EC50 HSV-2 (G) (HSV-2 (G)) | Antiviral Activity EC50 HSV-1 TK (KOS) [3] | other results
1 | Nc1nc(O)c2ncn(COC(CO)CO)c2n1 [Compound 1, ganciclovir, reference compound] | – | – | – | – | – | Cytotoxicity MCC [1]: >100 µM
2 | Nc1nc2c(ncn2CCC(CO)CO)c(=O)[nH]1 [Compound 2, penciclovir, reference compound] | – | – | – | – | – | Cytotoxicity MCC [1]: >100 µM
3 | CC(C)(NP(=O)(OCC(CO)OCn1cnc2c(=O)[nH]c(N)nc21)Oc1ccccc1)C(=O)OCc1ccccc1 (centres unmarked) [Compound 20] | >100 | >50 | – | – | – | fold difference in EC50 values between HSV-1 TK+ and TK− strains [3]: < 2.5 fold; fold more active than ACV against VZV TK− 07-1 strain (TK- VZV (07-1)): ≥ 20 fold
4 | C[C@H](NP(=O)(OCC(CO)OCn1cnc2c(=O)[nH]c(N)nc21)Oc1ccccc1)C(=O)OCc1ccccc1 (some centres unmarked) [Compound 27] | >100 | >100 | – | – | – | fold more active than ACV against VZV TK− 07-1 strain (TK- VZV (07-1)): ≥ 20 fold
5 | C[C@H](NP(=O)(OCC(CCn1cnc2c(=O)[nH]c(/N=C/N(C)C)nc21)COP(=O)(N[C@@H](C)C(=O)OCc1ccccc1)Oc1ccccc1)Oc1ccccc1)C(=O)OCc1ccccc1 (some centres unmarked) [Compound 30] | >100 | – | inactive | inactive | inactive | –
6 | C[C@H](NP(=O)(OCC(CCn1cnc2c(=O)[nH]c(N)nc21)COP(=O)(N[C@@H](C)C(=O)OCc1ccccc1)Oc1cccc2ccccc12)Oc1cccc2ccccc12)C(=O)OCc1ccccc1 (some centres unmarked) [Compound 37] | – | >50 | inactive | inactive | inactive | –
7 | CC(C)(NP(=O)(OCC(CCn1cnc2c(=O)[nH]c(N)nc21)COP(=O)(NC(C)(C)C(=O)OCc1ccccc1)Oc1ccccc1)Oc1ccccc1)C(=O)OCc1ccccc1 (centres unmarked) [Compound 38] | >100 | >50 | inactive | inactive | inactive | –
8 | CC(C)(NP(=O)(OCC(CCn1cnc2c(=O)[nH]c(N)nc21)COP(=O)(NC(C)(C)C(=O)OCc1ccccc1)Oc1cccc2ccccc12)Oc1cccc2ccccc12)C(=O)OCc1ccccc1 (centres unmarked) [Compound 40] | 100 | >50 | inactive | inactive | inactive | –
9 | C[C@H](NP(=O)(OCC(CO)CCn1cnc2c(=O)[nH]c(N)nc21)Oc1ccccc1)C(=O)OCc1ccccc1 (some centres unmarked) [Compound 42] | >100 | >50 | – | – | – | selectivity index (ratio IC50/EC50) (HIV-1 [4]): > 15
10 | C[C@H](NP(=O)(OCC(COP(=O)(N[C@@H](C)C(=O)OCc1ccccc1)Oc1ccccc1)SCn1cnc2c(=O)[nH]c(N)nc21)Oc1ccccc1)C(=O)OCc1ccccc1 (some centres unmarked) [Compound 55] | – | – | – | – | – | Anti-HIV Activity EC50 (HIV-1 [5]): did not inhibit HIV
11 | C[C@H](NP(=O)(OCC(CCn1cnc2c(Cl)nc(N)nc21)COP(=O)(N[C@@H](C)C(=O)OCc1ccccc1)Oc1ccccc1)Oc1ccccc1)C(=O)OCc1ccccc1 (some centres unmarked) [Compound 59] | – | – | – | – | – | fold loss in antiviral activity versus mono-ProTide 60 (HIV-1 [4]): 7 fold
12 | COc1nc(N)nc2c1ncn2CCC(CO)COP(=O)(N[C@@H](C)C(=O)OCc1ccccc1)Oc1ccccc1 (some centres unmarked) [Compound 66] | – | – | – | – | retention of some activity | selectivity index (ratio IC50/EC50) (HIV-1 [4]): 21
13 | CCOC(=O)[C@H](C)NP1(=O)OCC(OCn2cnc3c(=O)[nH]c(N)nc32)CO1 (some centres unmarked) [Compound 74] | – | – | – | – | – | selectivity index (ratio IC50/EC50) (HIV-1 [4]): > 7
